Source: patent US12697330B2, “Therapeutic methods using vadadustat” (Akebia Therapeutics, Inc., priority 2021, dated 2026)

Test system: hemoglobin (Hb)
Assay: Phase 2 study in hemodialysis subjects converting from epoetin alfa, Main Study: efficacy (hemoglobin)
Type: in vivo, human
From the text: The primary objective was to assess the efficacy and safety of daily dosing of vadadustat compared to epoetin alfa for 12 weeks in hemodialysis subjects. Additional objectives included to assess the efficacy and safety of three times weekly (TIW) dosing of vadadustat in selected hemodialysis subjects who have been successfully managed with daily dosing of vadadustat through Week 12, to evaluate the PK/PD of daily and TIW dosing of vadadustat in hemodialysis subjects compared to epoetin alfa, and to assess the efficacy and safety of several dosing strategies of vadadustat compared to epoetin alfa during a 20-week Treatment Period in hemodialysis subjects.
The Main study population consisted of adult subjects receiving chronic, outpatient in-center hemodialysis three times weekly (TIW), with 2 screening hemoglobin (Hb) values between 8.5 and 11.0 g/dL (inclusive) and on maintenance treatment with epoetin alfa <300 U/kg/week.
Efficacy Endpoints. The primary endpoint was the mean change in Hb between Baseline (average pretreatment Hb) and the primary evaluation period (average Hb from Weeks 10 to 12). Secondary endpoints included proportion of subjects with Hb values within the target range (10.0 to 11.0 g/dL, inclusive) at the primary evaluation period (Weeks 10-12) and for subjects who transitioned to TIW vadadustat dosing, mean change in Hb from primary evaluation period (average Hb from Weeks 10-12) to the secondary period (average Hb from Weeks 18-20). Other secondary endpoints included mean change in Hb from Baseline (average pretreatment Hb) and the secondary evaluation period (average Hb from Weeks 18-20), proportion of subjects with Hb values within the target range (10.0 to 11.0 g/dL, inclusive) at the secondary evaluation period (Weeks 18 to 20), for subjects who transitioned to TIW vadadustat dosing, proportion of subjects with Hb values within the target range (10.0 to 11.0 g/dL, inclusive) at the secondary evaluation period (Weeks 18-20), proportion of subjects with a mean increase in Hb from Baseline to the primary evaluation period ≥0.5 g/dL (average Hb from Weeks 10-12) or with Hb values within the target range (10.0 to 11.0 g/dL, inclusive) at the primary evaluation period (Weeks 10-12), proportion of subject with a mean increase in Hb from Baseline to the secondary evaluation period ≥0.5 g/dL (average Hb from Weeks 18-20) or with Hb values within the target range (10.0 to 11.0 g/dL, inclusive) at the secondary evaluation period (Weeks 18-20), intravenous (IV) iron supplementation, ESA rescue, and RBC transfusion.
Study Design. This was a Phase 2, randomized, open-label study to evaluate vadadustat for the treatment of anemia in hemodialysis subjects converting from epoetin alfa therapy. For all subjects (Main study and ESA hyporesponder parallel study), the study included a Screening Period, a study Treatment Period, and a Safety Follow-Up Period as described below. PK and PD sampling were done throughout the study. The aim was to achieve and maintain Hb levels within the target range of 10.0 to 11.0 g/dL, inclusive, while targeting the middle of the range and minimizing excursions outside the target range.
Randomization. Subjects were randomized to either a vadadustat treatment arm or epoetin alfa treatment arm. Randomization was stratified by mean weekly epoetin alfa dose calculated over a period of 8 weeks prior to SV2: low epoetin alfa dose group (≤90 U/kg/week) or high epoetin alfa dose group (>90 to <300 U/kg/week). In the low epoetin alfa dose group, subjects were randomized in a 3:3:2 ratio to receive either an initial vadadustat daily dose of 450 mg (3 tablets) or 300 mg (2 tablets), or epoetin alfa. In the high epoetin alfa dose group, subjects were randomized in a 3:3:3:2 ratio to receive either an initial vadadustat daily dose of 600 mg (4 tablets), 450 mg (3 tablets) or 300 mg (2 tablets), or epoetin alfa.
Study Treatment Period (Baseline/Day 1 to Week 20). […]

[1] = Primary Evaluation Period (Average of Weeks 10 to 12), Vada 300 mg, High Epoetin Alfa (>90 to <300 U/kg/week)
[2] = Primary Evaluation Period (Average of Weeks 10 to 12), Vada 300 mg, Low Epoetin Alfa (<90 U/kg/week)
[3] = Primary Evaluation Period (Average of Weeks 10 to 12), Vada 450 mg, High Epoetin Alfa (>90 to <300 U/kg/week)
[4] = Primary Evaluation Period (Average of Weeks 10 to 12), Vada 450 mg, Low Epoetin Alfa (<90 U/kg/week)
[5] = Primary Evaluation Period (Average of Weeks 10 to 12), Vada 600 mg, High Epoetin Alfa (>90 to <300 U/kg/week)
[6] = Secondary Evaluation Period (Average of Weeks 18 to 20), Vada 300 mg, High Epoetin Alfa (>90 to <300 U/kg/week)
[7] = Secondary Evaluation Period (Average of Weeks 18 to 20), Vada 300 mg, Low Epoetin Alfa (<90 U/kg/week)
[8] = Secondary Evaluation Period (Average of Weeks 18 to 20), Vada 450 mg, High Epoetin Alfa (>90 to <300 U/kg/week)
[9] = Secondary Evaluation Period (Average of Weeks 18 to 20), Vada 450 mg, Low Epoetin Alfa (<90 U/kg/week)
[10] = Secondary Evaluation Period (Average of Weeks 18 to 20), Vada 600 mg, High Epoetin Alfa (>90 to <300 U/kg/week)
[11] = Vada 300 mg, High Epoetin Alfa (>90 to <300 U/kg/week)
[12] = Vada 300 mg, Low Epoetin Alfa (<90 U/kg/week)
[13] = Vada 450 mg, High Epoetin Alfa (>90 to <300 U/kg/week)
[14] = Vada 450 mg, Low Epoetin Alfa (<90 U/kg/week)
[15] = Vada 600 mg, High Epoetin Alfa (>90 to <300 U/kg/week)

O=C(O)CNC(=O)c1ncc(-c2cccc(Cl)c2)cc1O [Compound 1, {[5-(3-chlorophenyl)-3-hydroxypyridine-2-carbonyl]amino}acetic acid]
Subjects with Hb Higher than Target range (10.0 to 11.0 g/dL), number (percentage of N2) [1]: 0 | Subjects with Hb Lower than Target range (10.0 to 11.0 g/dL), number (percentage of N2) [1]: 11 (91.7) | Subjects with Hb Within Target range (10.0 to 11.0 g/dL), number (percentage of N2) [1]: 1 (8.3) | Subjects with Hb Higher than Target range (10.0 to 11.0 g/dL), number (percentage of N2) [2]: 2 (6.7) | Subjects with Hb Lower than Target range (10.0 to 11.0 g/dL), number (percentage of N2) [2]: 16 (53.3) | Subjects with Hb Within Target range (10.0 to 11.0 g/dL), number (percentage of N2) [2]: 12 (40.0) | Subjects with Hb Higher than Target range (10.0 to 11.0 g/dL), number (percentage of N2) [3]: 4 (22.2) | Subjects with Hb Lower than Target range (10.0 to 11.0 g/dL), number (percentage of N2) [3]: 10 (55.6) | Subjects with Hb Within Target range (10.0 to 11.0 g/dL), number (percentage of N2) [3]: 4 (22.2) | Subjects with Hb Higher than Target range (10.0 to 11.0 g/dL), number (percentage of N2) [4]: 6 (20.0) | Subjects with Hb Lower than Target range (10.0 to 11.0 g/dL), number (percentage of N2) [4]: 11 (36.7) | Subjects with Hb Within Target range (10.0 to 11.0 g/dL), number (percentage of N2) [4]: 13 (43.3) | Subjects with Hb Higher than Target range (10.0 to 11.0 g/dL), number (percentage of N2) [5]: 2 (14.3) | Subjects with Hb Lower than Target range (10.0 to 11.0 g/dL), number (percentage of N2) [5]: 8 (57.1) | Subjects with Hb Within Target range (10.0 to 11.0 g/dL), number (percentage of N2) [5]: 4 (28.6) | Subjects with Hb Higher than Target range (10.0 to 11.0 g/dL), number (percentage of N2) [6]: 1 (14.3) | Subjects with Hb Lower than Target range (10.0 to 11.0 g/dL), number (percentage of N2) [6]: 4 (57.1) | Subjects with Hb Within Target range (10.0 to 11.0 g/dL), number (percentage of N2) [6]: 2 (28.6) | Subjects with Hb Higher than Target range (10.0 to 11.0 g/dL), number (percentage of N2) [7]: 4 (15.4) | Subjects with Hb Lower than Target range (10.0 to 11.0 g/dL), number (percentage of N2) [7]: 16 (61.5) | Subjects with Hb Within Target range (10.0 to 11.0 g/dL), number (percentage of N2) [7]: 6 (23.1) | Subjects with Hb Higher than Target range (10.0 to 11.0 g/dL), number (percentage of N2) [8]: 2 (14.3) | Subjects with Hb Lower than Target range (10.0 to 11.0 g/dL), number (percentage of N2) [8]: 9 (64.3) | Subjects with Hb Within Target range (10.0 to 11.0 g/dL), number (percentage of N2) [8]: 3 (21.4) | Subjects with Hb Higher than Target range (10.0 to 11.0 g/dL), number (percentage of N2) [9]: 3 (12.5) | Subjects with Hb Lower than Target range (10.0 to 11.0 g/dL), number (percentage of N2) [9]: 14 (58.3) | Subjects with Hb Within Target range (10.0 to 11.0 g/dL), number (percentage of N2) [9]: 7 (29.2) | Subjects with Hb Higher than Target range (10.0 to 11.0 g/dL), number (percentage of N2) [10]: 1 (10.0) | Subjects with Hb Lower than Target range (10.0 to 11.0 g/dL), number (percentage of N2) [10]: 7 (70.0) | Subjects with Hb Within Target range (10.0 to 11.0 g/dL), number (percentage of N2) [10]: 2 (20.0) | Change from Baseline in Hb at Primary Evaluation Period, Mean (SD) [11]: −1.048 (0.730) g/dL | Change from Baseline in Hb at Primary Evaluation Period, Median [11]: -0.967 g/dL | Change from Baseline in Hb at Secondary Evaluation Period, Mean (SD) [11]: 0.017 (1.086) g/dL | Change from Baseline in Hb at Secondary Evaluation Period, Median [11]: -0.325 g/dL | Hb at Primary Evaluation Period (Average of Weeks 10 to 12), Mean (SD) [11]: 8.82 (0.761) g/dL | Hb at Primary Evaluation Period (Average of Weeks 10 to 12), Median [11]: 8.750 g/dL | Hb at Secondary Evaluation Period (Average of Weeks 18 to 20), Mean (SD) [11]: 9.88 (1.027) g/dL | Hb at Secondary Evaluation Period (Average of Weeks 18 to 20), Median [11]: 9.575 g/dL | Change from Baseline in Hb at Primary Evaluation Period, Mean (SD) [12]: −0.421 (0.732) g/dL | Change from Baseline in Hb at Primary Evaluation Period, Median [12]: -0.450 g/dL | Change from Baseline in Hb at Secondary Evaluation Period, Mean (SD) [12]: −0.327 (1.086) g/dL | Change from Baseline in Hb at Secondary Evaluation Period, Median [12]: -0.300 g/dL | Hb at Primary Evaluation Period (Average of Weeks 10 to 12), Mean (SD) [12]: 9.78 (0.742) g/dL | Hb at Primary Evaluation Period (Average of Weeks 10 to 12), Median [12]: 9.767 g/dL | Hb at Secondary Evaluation Period (Average of Weeks 18 to 20), Mean (SD) [12]: 9.86 (0.932) g/dL | Hb at Secondary Evaluation Period (Average of Weeks 18 to 20), Median [12]: 9.775 g/dL | Change from Baseline in Hb at Primary Evaluation Period, Mean (SD) [13]: −0.130 (1.033) g/dL | Change from Baseline in Hb at Primary Evaluation Period, Median [13]: -0.250 g/dL | Change from Baseline in Hb at Secondary Evaluation Period, Mean (SD) [13]: −0.458 (0.895) g/dL | Change from Baseline in Hb at Secondary Evaluation Period, Median [13]: -0.575 g/dL | Hb at Primary Evaluation Period (Average of Weeks 10 to 12), Mean (SD) [13]: 9.96 (1.121) g/dL | Hb at Primary Evaluation Period (Average of Weeks 10 to 12), Median [13]: 9.750 g/dL | Hb at Secondary Evaluation Period (Average of Weeks 18 to 20), Mean (SD) [13]: 9.63 (0.954) g/dL | Hb at Secondary Evaluation Period (Average of Weeks 18 to 20), Median [13]: 9.475 g/dL | Change from Baseline in Hb at Primary Evaluation Period, Mean (SD) [14]: −0.074 (1.085) g/dL | Change from Baseline in Hb at Primary Evaluation Period, Median [14]: 0.017 g/dL | Change from Baseline in Hb at Secondary Evaluation Period, Mean (SD) [14]: −0.273 (0.827) g/dL | Change from Baseline in Hb at Secondary Evaluation Period, Median [14]: -0.300 g/dL | Hb at Primary Evaluation Period (Average of Weeks 10 to 12), Mean (SD) [14]: 10.08 (1.226) g/dL | Hb at Primary Evaluation Period (Average of Weeks 10 to 12), Median [14]: 10.550 g/dL | Hb at Secondary Evaluation Period (Average of Weeks 18 to 20), Mean (SD) [14]: 9.91 (0.909) g/dL | Hb at Secondary Evaluation Period (Average of Weeks 18 to 20), Median [14]: 9.917 g/dL | Change from Baseline in Hb at Primary Evaluation Period, Mean (SD) [15]: −0.541 (1.124) g/dL | Change from Baseline in Hb at Primary Evaluation Period, Median [15]: -0.133 g/dL | Change from Baseline in Hb at Secondary Evaluation Period, Mean (SD) [15]: −0.500 (1.025) g/dL | Change from Baseline in Hb at Secondary Evaluation Period, Median [15]: -0.300 g/dL | Hb at Primary Evaluation Period (Average of Weeks 10 to 12), Mean (SD) [15]: 9.62 (1.026) g/dL | Hb at Primary Evaluation Period (Average of Weeks 10 to 12), Median [15]: 9.233 g/dL | Hb at Secondary Evaluation Period (Average of Weeks 18 to 20), Mean (SD) [15]: 9.57 (0.871) g/dL | Hb at Secondary Evaluation Period (Average of Weeks 18 to 20), Median [15]: 9.450 g/dL
